Test results published in publication doi:10.1101/2022.02.09.479090v1 (biorxiv, 2022).
Read-outs that look alike come from different tables or passages of the source.

Legend:
AncFT [1] = assay: anaerobic fluorescence titration; parameters: species or system synthetic construct; conditions: 100 mM potassium phosphate pH 7.5, 30 °C
RLuc8 [2] = target: T1, RLuc8 (Renilla reniformis, UniProt P27652, A143M/A55T/C124A/K136R/M185V/M253L/S130A/S287L); assay: biochemical
AncFT [3] = assay: anaerobic fluorescence titration; parameters: species or system synthetic construct; conditions: 100 mM potassium phosphate pH 7.5, 30 °C; remark: listed apart in the source
AncFT [4] = assay: luminescence progress curves, global numerical fit; assay type: biochemical, synthetic construct; conditions: O2 co-substrate; 100 mM phosphate pH 7.5, 37 °C
RLuc8 [5] = target: T1, RLuc8; assay: biochemical; remark: listed apart in the source
AncFT [6] = assay: luminescence progress curves, global numerical fit; assay type: biochemical, synthetic construct; conditions: competitive versus coelenterazine; 100 mM phosphate pH 7.5, 37 °C
RLuc8 [7] = target: T1, RLuc8; assay: biochemical; remark: listed apart in the source
purified protein = substrate: Oc1ccc(Cc2nc3c(Cc4ccccc4)nc(-c4ccc(O)cc4)cn3c2O)cc1; assay: purified protein; conditions: O2 co-substrate, 100 mM phosphate pH 7.5, 37 °C

O=C(Cc1ccc(O)cc1)Nc1ncc(-c2ccc(O)cc2)nc1Cc1ccccc1 [CEI, coelenteramide]
Kd (AncFT [1]): 16 ± 2 µM
Kd (RLuc8 [2]): 22 ± 2 µM

Oc1ccc(Cc2nc3c(Cc4ccccc4)nc(-c4ccc(O)cc4)cn3c2O)cc1 [CTZ, 2-(p-hydroxybenzyl)-6-(p-hydroxyphenyl)-8-benzylimidazo [1,2-a]pyrazine-3-(7H)-one]
Kd (AncFT [3]): 12 ± 5 µM
Km (AncFT [4]): 0.042 µM
Kd (RLuc8 [5]): 37 ± 15 µM

O=c1n(Cc2ccc(O)cc2)nc2c(Cc3ccccc3)nc(-c3ccc(O)cc3)cn12 [azaCTZ, 8-Benzyl-2-(4-hydroxybenzyl)-6-(4-hydroxyphenyl)-[1,2,4]triazolo[4,3-a]pyrazin-3(2H)-one]
Ki (AncFT [6]): 0.092 ± 0.002 µM
Ki (RLuc8 [7]): 16.1 µM

B1: RLuc8 (Renilla reniformis; A143M/A55T/C124A/K136R/M185V/M253L/S130A/S287L) (protein)
chain: MTSKVYDPEQRKRMITGPQWWARCKQMNVLDSFINYYDSEKHAENAVIFLHGNATSSYLWRHVVPHIEPVARCIIPDLIGMGKSGKSGNGSYRLLDHYKYLTAWFELLNLPKKIIFVGHDWGAALAFHYAYEHQDRIKAIVHMESVVDVIESWDEWPDIEEDIALIKSEEGEKMVLENNFFVETVLPSKIMRKLEPEEFAAYLEPFKEKGEVRRPTLSWPREIPLVKGGKPDVVQIVRNYNAYLRASDDLPKLFIESDPGFFSNAIVEGAKKFPNTEFVKVKGLHFLQEDAPDEMGKYIKSFVERVLKNEQ
Km (purified protein): 1.66 µM
